Measured values published in ChEMBL document CHEMBL1201862, “PubChem BioAssay data set” (2004).
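Cells were grown in 96-well plates and exposed to each compound for 48 hours at five concentrations; endpoints were interpolated linearly between bracketing concentrations, or set to the highest concentration if not reached. GI50 = concentration required for 50% inhibition of growth.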 Active and inactive are the calls of the source. Rule as the data show it: active = GI50 up to about 1.1 µM and inactive = higher.

How the values were obtained:
Assay in all cases: inhibition of tumour cell growth, NCI panel, 48 h
[1] = test system: NCI/ADR-RES
[2] = test system: TK-10
[3] = test system: SF-268
[4] = test system: UO-31
[5] = test system: RXF 393
[6] = test system: HT-29
[7] = test system: U-251
[8] = test system: NCI-H460
[9] = test system: A549
[10] = test system: SK-MEL-5
[11] = test system: OVCAR-4
[12] = test system: UACC-62
[13] = test system: HCT-15
[14] = test system: RPMI-8226
[15] = test system: T47D
[16] = test system: ACHN
[17] = test system: MDA-MB-231
[18] = test system: MDA-MB-435
[19] = test system: M14
[20] = test system: EKVX

Measured: GI50

COc1ccc(C2CC(c3c(O)ccc4ccccc34)=NN2C(C)=O)cc1OC (stereo not drawn)
inactive: [1] 26.5 µM | [2] 53.3 µM | [3] 31.4 µM | [4] 23.1 µM | [5] 24.1 µM | [6] 40 µM | [7] 29.6 µM | [8] 28.1 µM | [9] 24.9 µM | [10] 21.9 µM | [11] 44.3 µM | [12] 15.1 µM | [14] 12 µM | [15] 34.6 µM | [16] 35.4 µM | [17] 18.5 µM | [18] 21.3 µM | [19] 24.1 µM
30.1 µM: [13]

Cc1ccc(-c2n[nH]c(=O)n2/N=C\c2ccccc2O)cc1
> 100 µM: [13]
inactive: [1] > 100 µM | [2] > 100 µM | [3] > 100 µM | [4] > 100 µM | [5] 57.8 µM | [20] > 100 µM | [6] > 100 µM | [7] > 100 µM | [8] > 100 µM | [9] > 100 µM | [10] > 100 µM | [11] > 100 µM | [14] > 100 µM | [15] 94 µM | [16] > 100 µM | [17] 68.5 µM | [18] > 100 µM | [19] > 100 µM

COC(=O)/C=C\[C@@H]1[C@H](C)N1S(=O)(=O)c1ccc(C)cc1 (stereo partly drawn)
inactive: [1] > 100 µM | [2] > 100 µM | [3] > 100 µM | [5] > 100 µM | [6] > 100 µM | [7] > 100 µM | [8] > 100 µM | [9] > 100 µM | [10] > 100 µM | [11] > 100 µM | [12] > 100 µM | [14] > 100 µM | [15] > 100 µM | [16] > 100 µM | [17] > 100 µM | [18] > 100 µM | [19] > 100 µM
> 100 µM: [13]

Cc1sc(Nc2ccc(Nc3nc(-c4ccccc4)c(C)s3)cc2)nc1-c1ccccc1
inactive: [1] 41.4 µM | [2] 57.8 µM | [3] > 100 µM | [4] 89.7 µM | [5] 8.67 µM | [20] > 100 µM | [6] 60 µM | [7] 13.7 µM | [8] 18.2 µM | [9] 30.1 µM | [10] 22.6 µM | [11] > 100 µM | [12] 54.3 µM | [15] 8.95 µM | [16] 36.5 µM | [17] 42 µM | [18] > 100 µM | [19] 61.2 µM
44.8 µM: [13]

O=C(c1ccccc1)C1C(C(=O)c2ccccc2)C(c2ccccc2)N(c2ccccc2)C1c1ccccc1 (stereo not drawn)
> 100 µM: [13]
inactive: [1] > 100 µM | [2] > 100 µM | [3] > 100 µM | [4] > 100 µM | [5] > 100 µM | [20] > 100 µM | [7] > 100 µM | [8] > 100 µM | [9] > 100 µM | [10] > 100 µM | [12] > 100 µM | [14] 21.2 µM | [15] > 100 µM | [16] > 100 µM | [17] > 100 µM | [18] > 100 µM | [19] > 100 µM

CC1(C)CC(=O)C2=C(C1)N(c1ccccc1)C1(O)C=CC(O)=C3C(=O)c4ccccc4C(=O)C321 (stereo not drawn)
30.8 µM: [13]
inactive: [1] 9.84 µM | [2] 24.4 µM | [3] 20.2 µM | [4] 19.1 µM | [5] 19.8 µM | [20] 55.6 µM | [6] 21.2 µM | [7] 32.9 µM | [8] 26.3 µM | [9] 67.5 µM | [11] 14.7 µM | [12] 19.2 µM | [14] 22.3 µM | [15] 45.3 µM | [16] 21.1 µM | [17] 34.4 µM | [18] 20.7 µM | [19] 40.5 µM

CCO/C=N\C1=C(C#N)SC2=N/C(=C\c3ccco3)C(=O)N21
inactive: [1] > 100 µM | [2] > 100 µM | [3] > 100 µM | [4] > 100 µM | [5] > 100 µM | [20] > 100 µM | [6] > 100 µM | [7] > 100 µM | [9] > 100 µM | [10] > 100 µM | [11] > 100 µM | [14] > 100 µM | [15] > 100 µM | [16] > 100 µM | [17] > 100 µM | [18] > 100 µM | [19] > 100 µM
> 100 µM: [13]

Cc1nn(CNc2ccc(F)c(Cl)c2)c(=S)n1/N=C/c1ccc(-c2ccc(Cl)cc2Cl)o1
inactive: [1] 19.3 µM | [2] 15.3 µM | [3] 16.3 µM | [4] 16.7 µM | [5] 17.9 µM | [20] 16.4 µM | [6] 19.6 µM | [7] 14.7 µM | [8] 17.1 µM | [10] 16.7 µM | [11] 20.1 µM | [14] 14.8 µM | [15] 18.5 µM | [16] 16.6 µM | [17] 17.8 µM | [18] 17.6 µM | [19] 18.7 µM
16.9 µM: [13]

CC1(C)OCC2OC3([C@H](O)CCO)OC(C)(C)OC3C2O1 (stereo partly drawn)
> 100 µM: [13]
inactive: [1] > 100 µM | [4] > 100 µM | [5] > 100 µM | [20] > 100 µM | [6] > 100 µM | [7] > 100 µM | [8] > 100 µM | [9] > 100 µM | [10] > 100 µM | [11] > 100 µM | [12] > 100 µM | [14] > 100 µM | [15] > 100 µM | [16] > 100 µM | [17] > 100 µM | [18] > 100 µM | [19] > 100 µM

COC(=O)/C(C#N)=C(/NCc1ccccc1)Nc1ccccc1
83.2 µM: [13]
inactive: [1] 51.1 µM | [2] > 100 µM | [3] > 100 µM | [4] 37.6 µM | [5] > 100 µM | [20] 50.9 µM | [6] 87.7 µM | [7] > 100 µM | [8] 77.4 µM | [9] 45.1 µM | [10] 64 µM | [11] 91 µM | [14] 48.9 µM | [15] 79.3 µM | [16] > 100 µM | [17] 69.7 µM | [18] > 100 µM | [19] 42.4 µM

CCOC(=O)c1cc(C2CCN(CC(C)CC)C2=S)c(-c2cc(C)no2)[nH]1 (stereo not drawn)
inactive: [1] 41.3 µM | [3] 69.3 µM | [4] 17.3 µM | [5] > 100 µM | [20] 14.7 µM | [6] 41.7 µM | [7] > 100 µM | [8] > 100 µM | [9] 51.4 µM | [10] 48.4 µM | [11] > 100 µM | [12] 72.3 µM | [14] 66.1 µM | [15] 50.4 µM | [17] 29.6 µM | [18] > 100 µM | [19] > 100 µM
> 100 µM: [13]

CC1(C)CC[C@]2(C)CC=C3[C@]4(C)CC[C@H]5C(C)(C)C(=O)CC[C@]5(C)[C@H]4CC[C@@]3(C)[C@H]2C1
inactive: [1] > 100 µM | [2] > 100 µM | [3] > 100 µM | [4] > 100 µM | [5] > 100 µM | [20] > 100 µM | [6] > 100 µM | [7] > 100 µM | [9] > 100 µM | [10] > 100 µM | [11] > 100 µM | [12] > 100 µM | [14] > 100 µM | [15] > 100 µM | [16] > 100 µM | [17] > 100 µM | [18] > 100 µM | [19] > 100 µM
> 100 µM: [13]

CC[S+]([O-])C(=O)N(O)c1ccc(Cl)cc1 (stereo not drawn)
inactive: [1] 24.9 µM | [2] 35.8 µM | [3] 20.8 µM | [4] 14.5 µM | [5] 19.7 µM | [20] 26.7 µM | [7] 19.4 µM | [9] 67.3 µM | [10] 26.4 µM | [11] 38.3 µM | [12] 8.55 µM | [14] 1.24 µM | [15] 31.3 µM | [16] 11.1 µM | [17] 29.4 µM | [18] 15 µM | [19] 12.8 µM
23.8 µM: [13]

Nc1nc(Nc2ccc(Cl)cc2)sc1C(=O)c1c[nH]c2ccccc12
3.87 µM: [13]
inactive: [1] 12.4 µM | [2] 13 µM | [3] 21.4 µM | [4] 15.4 µM | [5] 9.27 µM | [6] 6.78 µM | [7] 12.2 µM | [8] 6.92 µM | [9] 13.6 µM | [10] 12 µM | [11] 14.7 µM | [12] 14.9 µM | [14] 11.6 µM | [15] 8.32 µM | [16] 12.4 µM | [17] 17.9 µM | [18] 12.9 µM | [19] 11.2 µM

Cn1c(-c2cccs2)cc(-c2ccsc2)c1-c1ccsc1
inactive: [1] > 100 µM | [2] > 100 µM | [3] > 100 µM | [4] > 100 µM | [5] > 100 µM | [20] > 100 µM | [6] 93.5 µM | [7] > 100 µM | [8] > 100 µM | [9] > 100 µM | [10] 36.1 µM | [11] > 100 µM | [12] > 100 µM | [15] 1.81 µM | [16] > 100 µM | [17] > 100 µM | [18] > 100 µM | [19] > 100 µM
> 100 µM: [13]
